Data reported in ChEMBL document CHEMBL1153298, “Discovery of tetrahydro-cyclopenta[b]indole as selective LXRs modulator” (Bioorg Med Chem Lett, 2009).
Activity calls are given as the source filed them. No cut-off for these calls is given here.

Experiments:
[1] = molecular target: T1, Oxysterols receptor LXR-alpha (Homo sapiens, UniProt Q13133); assay: (§1) Transactivation of LXRalpha
T1 sequence (Q13133 whole entry): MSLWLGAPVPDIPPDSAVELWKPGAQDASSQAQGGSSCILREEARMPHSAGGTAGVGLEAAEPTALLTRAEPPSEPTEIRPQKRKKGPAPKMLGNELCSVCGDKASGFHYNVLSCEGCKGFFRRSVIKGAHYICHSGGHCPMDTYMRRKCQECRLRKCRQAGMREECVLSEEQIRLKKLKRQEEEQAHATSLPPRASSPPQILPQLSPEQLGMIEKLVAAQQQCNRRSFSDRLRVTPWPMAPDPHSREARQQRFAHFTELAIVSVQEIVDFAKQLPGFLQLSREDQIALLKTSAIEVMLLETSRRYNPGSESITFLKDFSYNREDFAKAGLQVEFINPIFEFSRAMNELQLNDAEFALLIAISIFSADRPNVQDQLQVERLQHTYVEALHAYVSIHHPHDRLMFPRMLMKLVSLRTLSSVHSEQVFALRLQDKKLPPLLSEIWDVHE

[2] = molecular target: T1, Oxysterols receptor LXR-alpha; assay: (§2) Binding affinity to LXRalpha
[3] = molecular target: T2, Oxysterols receptor LXR-alpha (Homo sapiens) (UniProt Q13133); assay: as §1
T2 sequence (whole entry): T1 sequence (Q13133 whole entry)

[4] = molecular target: T2, Oxysterols receptor LXR-alpha (Homo sapiens); assay: as §2
[5] = system: Mus musculus; assay: Increase in HDL-cholesterol level in C57BL/6J mouse at 10 mg/kg/day, ip dosed for 5 days measured 2 hrs after last dose; assay type: functional; conditions: route intraperitoneal
[6] = system: Mus musculus; assay: Increase in plasma triglyceride level in C57BL/6J mouse at 10 mg/kg/day, ip dosed for 5 days measured 2 hrs after last dose; assay type: functional; conditions: route intraperitoneal
[7] = system: Mus musculus; assay: Increase in liver triglyceride level in C57BL/6J mouse at 10 mg/kg/day, ip dosed for 5 days measured 2 hrs after last dose; assay type: functional; conditions: route intraperitoneal
[8] = Plasma concentration in C57BL/6J mouse at 10 mg/kg/day, ip dosed for 5 days; assay type: ADME, organism-based; parameters: route intraperitoneal
[9] = Drug level in C57BL/6J mouse liver at 10 mg/kg/day, ip dosed for 5 days; assay type: ADME, organism-based; parameters: route intraperitoneal; conditions: read-out: Drug uptake
[10] = molecular target: Voltage-gated inwardly rectifying potassium channel KCNH2 (Homo sapiens, UniProt Q12809); assay: Binding affinity to human ERG
[11] = system: Mus musculus; assay: Increase in plasma triglyceride level in C57BL/6J mouse at 40 mg/kg/day, ip dosed for 5 days measured 2 hrs after last dose; assay type: functional; conditions: route intraperitoneal
[12] = molecular target: Cytochrome P450 3A4 (Homo sapiens, UniProt P08684); assay: Binding affinity to CYP3A4; assay type: ADME
[13] = system: Mus musculus; assay: Increase in plasma triglyceride level in C57BL/6J mouse at 100 mg/kg/day, ip dosed for 5 days measured 2 hrs after last dose; assay type: functional; conditions: route intraperitoneal
[14] = system: Mus musculus; assay: Increase in liver triglyceride level in C57BL/6J mouse at 40 mg/kg/day, ip dosed for 5 days measured 2 hrs after last dose; assay type: functional; conditions: route intraperitoneal
[15] = system: Mus musculus; assay: Increase in HDL-cholesterol level in C57BL/6J mouse at 40 mg/kg/day, ip dosed for 5 days measured 2 hrs after last dose; assay type: functional; conditions: route intraperitoneal
[16] = system: Mus musculus; assay: Increase in liver triglyceride level in C57BL/6J mouse at 100 mg/kg/day, ip dosed for 5 days measured 2 hrs after last dose; assay type: functional; conditions: route intraperitoneal
[17] = Plasma concentration in C57BL/6J mouse at 40 mg/kg/day, ip dosed for 5 days; assay type: ADME, organism-based; parameters: route intraperitoneal
[18] = system: Mus musculus; assay: Increase in HDL-cholesterol level in C57BL/6J mouse at 100 mg/kg/day, ip dosed for 5 days measured 2 hrs after last dose; assay type: functional; conditions: route intraperitoneal
[19] = Drug level in C57BL/6J mouse liver at 40 mg/kg/day, ip dosed for 5 days; assay type: ADME, organism-based; parameters: route intraperitoneal; conditions: read-out: Drug uptake
[20] = Drug level in C57BL/6J mouse liver at 100 mg/kg/day, ip dosed for 5 days; assay type: ADME, organism-based; parameters: route intraperitoneal; conditions: read-out: Drug uptake
[21] = Plasma concentration in C57BL/6J mouse at 100 mg/kg/day, ip dosed for 5 days; assay type: ADME, organism-based; parameters: route intraperitoneal

Cytochrome P450 3A4, sequence (P08684 whole entry): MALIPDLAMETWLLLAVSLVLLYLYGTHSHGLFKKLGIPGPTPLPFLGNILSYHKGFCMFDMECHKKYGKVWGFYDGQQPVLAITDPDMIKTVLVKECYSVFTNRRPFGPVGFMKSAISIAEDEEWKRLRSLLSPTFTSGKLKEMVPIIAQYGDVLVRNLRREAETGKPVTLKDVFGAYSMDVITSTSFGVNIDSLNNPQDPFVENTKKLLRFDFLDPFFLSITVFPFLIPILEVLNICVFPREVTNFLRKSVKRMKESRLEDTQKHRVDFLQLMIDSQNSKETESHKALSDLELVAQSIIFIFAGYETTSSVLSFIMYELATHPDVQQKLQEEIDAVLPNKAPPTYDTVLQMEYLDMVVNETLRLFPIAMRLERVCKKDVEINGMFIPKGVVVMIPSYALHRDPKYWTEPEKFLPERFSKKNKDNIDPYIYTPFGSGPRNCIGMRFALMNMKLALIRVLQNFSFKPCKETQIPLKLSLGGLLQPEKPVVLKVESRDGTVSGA
Voltage-gated inwardly rectifying potassium channel KCNH2, sequence (Q12809 whole entry): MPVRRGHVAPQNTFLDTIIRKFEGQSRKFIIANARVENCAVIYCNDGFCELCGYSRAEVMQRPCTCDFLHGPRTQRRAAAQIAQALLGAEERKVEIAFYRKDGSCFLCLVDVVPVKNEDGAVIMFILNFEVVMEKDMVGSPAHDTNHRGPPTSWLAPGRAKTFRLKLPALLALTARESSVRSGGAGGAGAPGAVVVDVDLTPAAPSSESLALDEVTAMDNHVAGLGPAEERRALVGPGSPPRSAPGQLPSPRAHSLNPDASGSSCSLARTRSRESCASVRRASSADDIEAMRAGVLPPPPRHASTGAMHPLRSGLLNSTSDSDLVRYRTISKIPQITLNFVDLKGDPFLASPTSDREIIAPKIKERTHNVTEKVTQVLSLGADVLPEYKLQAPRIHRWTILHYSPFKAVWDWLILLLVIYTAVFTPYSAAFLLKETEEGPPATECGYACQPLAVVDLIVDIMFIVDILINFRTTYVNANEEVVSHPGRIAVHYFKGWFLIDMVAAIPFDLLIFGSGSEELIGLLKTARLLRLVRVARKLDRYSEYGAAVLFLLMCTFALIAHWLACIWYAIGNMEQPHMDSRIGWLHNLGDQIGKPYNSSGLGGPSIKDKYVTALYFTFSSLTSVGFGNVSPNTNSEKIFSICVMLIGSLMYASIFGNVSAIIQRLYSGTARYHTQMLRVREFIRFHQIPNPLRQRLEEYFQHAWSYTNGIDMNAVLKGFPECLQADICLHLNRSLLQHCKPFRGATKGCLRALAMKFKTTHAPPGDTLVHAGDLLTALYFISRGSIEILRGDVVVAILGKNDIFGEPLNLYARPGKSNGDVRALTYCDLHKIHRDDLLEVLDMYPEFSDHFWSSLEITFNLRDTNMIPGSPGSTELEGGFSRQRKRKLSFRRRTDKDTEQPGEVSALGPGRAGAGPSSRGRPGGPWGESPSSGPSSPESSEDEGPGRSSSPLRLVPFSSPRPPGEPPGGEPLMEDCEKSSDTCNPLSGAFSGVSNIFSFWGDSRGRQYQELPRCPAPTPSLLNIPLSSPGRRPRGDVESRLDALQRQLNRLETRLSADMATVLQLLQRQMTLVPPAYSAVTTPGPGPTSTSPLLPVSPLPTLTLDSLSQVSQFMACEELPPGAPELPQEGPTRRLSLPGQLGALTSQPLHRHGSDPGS

Structure (SMILES) | EC50 [1] | IC50 [2] | concentration at 120 h [8] | concentration at 120 h [9] | Activity [5] | Activity [6] | Activity [7] | further results
COC(=O)c1noc([C@](F)([C@H]2Cc3[nH]c4ccc(Cl)cc4c3C2)S(=O)(=O)c2ccccc2)n1 (racemic) | 1260 nM | 1630 nM | – | – | – | – | – | –
COC(=O)C(C)(C1CCCc2c([nH]c3ccc(Cl)cc23)C1)S(=O)(=O)c1ccccc1 (stereo not drawn) | – | – | – | – | – | – | – | Activity [3]: inactive; Activity [4]: inactive
Cc1nnc([C@](F)([C@H]2Cc3[nH]c4ccc(Cl)cc4c3C2)S(=O)(=O)c2ccccc2)o1 | – | – | 180 ng/mL | 1130 ng/g | 27% | 9% | 100% | Activity [10]: Not Active; Activity [11]: 9%; Activity [12]: Not Active; Activity [13]: -2%; Activity [14]: -19%; Activity [15]: 27%; Activity [16]: 45%; concentration at 120 h [17]: 682 ng/mL; Activity [18]: 36%; concentration at 120 h [19]: 5490 ng/g; concentration at 120 h [20]: 13200 ng/g; concentration at 120 h [21]: 2150 ng/mL

Continued, in another order:

EC50 [1] | IC50 [2] | concentration at 120 h [8] | concentration at 120 h [9] | Structure (SMILES) | Activity [5] | Activity [6] | Activity [7] | further results
160 nM | 100 nM | – | – | N#Cc1noc([C@](F)([C@H]2Cc3[nH]c4ccc(Cl)cc4c3C2)S(=O)(=O)c2ccccc2)n1 (racemic) | – | – | – | –
– | – | 255 ng/mL | 7900 ng/g | O=S(=O)(c1ccccc1)N(CC(F)(F)F)c1ccc(C(O)(C(F)(F)F)C(F)(F)F)cc1 [T091317] | 23% | 20% | 270% | –
